# “Also recorded” adds a separate entry of the source.
# T1: C-terminal Hsp70-interacting protein (CHIP), human recombinant full length, wild type, tag-free (human, UniProt Q9UNE7 1-303)
# T1 construct: also called WT; wild-type CHIP; source: E. coli BL21, purified (Glutathion Sepharose 4B, PreScission protease, SEC on Superdex 200)
# T1 sequence (looked up): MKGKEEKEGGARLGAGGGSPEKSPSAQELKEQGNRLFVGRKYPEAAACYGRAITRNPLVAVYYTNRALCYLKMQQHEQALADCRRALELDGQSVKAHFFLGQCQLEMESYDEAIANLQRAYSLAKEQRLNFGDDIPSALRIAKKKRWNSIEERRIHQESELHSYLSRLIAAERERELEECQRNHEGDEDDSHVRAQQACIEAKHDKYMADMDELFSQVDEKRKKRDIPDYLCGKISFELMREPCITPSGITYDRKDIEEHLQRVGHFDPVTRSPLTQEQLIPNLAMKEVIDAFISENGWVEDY
# B1: TPR domain: glutamate152 codon exchanged to a stop codon in full-length CHIP (protein, UniProt Q9UNE7 1-151, looked up, fragment)
# chain: MKGKEEKEGGARLGAGGGSPEKSPSAQELKEQGNRLFVGRKYPEAAACYGRAITRNPLVAVYYTNRALCYLKMQQHEQALADCRRALELDGQSVKAHFFLGQCQLEMESYDEAIANLQRAYSLAKEQRLNFGDDIPSALRIAKKKRWNSIE
# modifications: TPR domain
# notes: glutamate152 codon exchanged to a stop codon in full-length CHIP
# B2: C-terminal HSP70 octapeptide GPTIEEVD (peptide)
# peptide: GPTIEEVD
# notes: last eight residues of HSP70 (HSPA1A); also called HSP70 peptide; HSP70 C-terminal peptide; source: synthetic peptide (custom-synthetized by GenScript)
# Columns and labels:
# [1] = test system: EGFP-CHIP in murine embryonic fibroblasts; test: EGFP-CHIP relocalization to membranes in murine embryonic fibroblasts (fluorescence microscopy); type: cell-based; settings: N = 3; for EGFP-CHIP relocalization to the plasma membrane: 20 μM inhibitor for 4 hr, 37°C, serum-free medium, without fixation, EGFP as control, ***p<0.001, chi-square
# [2] = test system: EGFP-CHIP-K30A in murine embryonic fibroblasts; test: Release of EGFP-CHIP-K30A from cellular membranes (PLD inhibitors); type: cell-based; settings: 12 hr inhibitor treatment in serum-free DMEM, without fixation; *p<0.05 (chi-square); N = 4
# [3] = test system: CHIP; test: Lipid-binding assay (membrane-immobilized lipids, lipid arrays); parameters: species or system Human; settings: for CHIP binding to phospholipid on lipid array: lipid strips/PIP strips, 0.5 µg/ml wild-type chaperone-free CHIP, 1 hr at RT, anti-C-CHIP antibody
# Description: (§1) Human recombinant full length CHIP and its truncated versions were purified from Escherichia coli BL21 cells using Glutathion Sepharose 4B (GE Healthcare). Sepharose-bound GST-CHIP was subjected to overnight treatment with PreScission protease and the released tag-free protein was collected. Size exclusion chromatography on a HiLoad Superdex 200 column (GE Healthcare) followed to ensure the purity and homogeneity of proteins. All CHIP variants were kept in HSP70 buffer (25 mM HEPES KOH pH 7.5, 150 mM KCl, 5 mM MgCl2, 5% glycerol, 1 mM DTT).
# Membrane-immobilized lipids (Membrane lipid strips P-6002 and PIP strips P-6001) were purchased from Echelon Research Laboratories. The strips were incubated with blocking buffer (3% fatty acid free BSA, 0.1% (v/v) Tween-20 in PBS pH 7.5) for 1 hr at RT. 0.5 µg/ml of purified wild-type or mutant CHIP was added in blocking buffer and incubated for 1 hr at RT. Strips were washed and bound proteins were detected using anti-C-CHIP antibody. For competition experiments, ten times molar excess of C-terminal HSP70 was added to CHIP in blocking buffer.
# [4] = test system: CHIP; test: Liposome pelleting assay, effect of lipids and HSP70-C on CHIP association; type: binding, Human
# Description: as §1
# Human C-terminal HSP70 6xHis-tagged N-terminally was purified from Escherichia coli BL21 cells using 1 ml HisTrap column (GE Healthcare). Bound protein was eluted by applying an imidazole gradient. Fractions containing the protein were subjected to size exclusion chromatography using HiLoad Superdex 200 in HSP70 buffer. His-NQO1, His-UbcH5a, His-Uev1a and His-Ubc13 were purified similarly except that PBS/1 mM DTT was used during size exclusion chromatography. Purity of recombinant protein was evaluated by SDS-PAGE and Coomassie BB G-250 (CBB) staining. Concentration of proteins was determined measuring absorbance at 280 nm and using ProtParam (ExPASy) to calculate respective extinction coefficients. Proteins were aliquoted, snap-frozen and stored at −80°C.
# Liposomes were prepared by mixing 1,2-dioleoyl-sn-glycero-3-phosphocholine (DOPC) with indicated amount (wt/wt) of either 1,2-dipalmitoyl-sn-glycero-3-phosphate (phosphatidic acid) or (wt/wt) 1,2-dipalmitoyl-sn-glycero-3-phosphoinositol-4-phosphate (PI4P) in a 1.5 ml reaction tube (Eppendorf). Lipid mixtures were dried under a nitrogen stream and kept for 1 hr under vacuum. Liposomes were rehydrated in 1 ml filtered reconstitution buffer (25 mM HEPES KOH pH 7.5, 50 mM NaCl) to a concentration of 10 mM lipids. Liposomes were reconstituted by shaking at 2000 rpm for 1 hr at 50°C, followed by sonication for 1 hr at 50°C in a water bath. The liposome suspension was subjected to five freeze-thaw cycles in liquid nitrogen to promote unilamellar vesicle formation, aliquoted in 200 µl and pulse-sonicated for 8 s at 45% output with MS72 sonotrode (Bandelin) to create a population of homogenously sized liposomes as determined using NanoSight (Malvern Instruments). Sonicated liposomes were pooled, aliquoted again, snap-frozen and stored at −80°C.
# 2 mM liposomes were mixed with 2 µM recombinant protein in 50 µl reconstitution buffer. The suspension was incubated shaking at 450 rpm for 30 min at 37°C. Liposomes with bound protein were sedimented by ultracentrifugation at 100,000 g for 30 min at 25°C. Liposome pellet was washed with 50 µl of reconstitution buffer and sedimented again at 100,000 g for 30 min at 25°C. The pellet was resuspended in 10 µl reconstitution buffer, resolved by SDS-PAGE and analyzed by CBB staining. Images were acquired with ChemiDoc MP imaging system and quantified using Image Lab 5.0 software (both from Bio-Rad Laboratories). For competition assays, indicated amounts of C-terminal HSP70 were preincubated with 2 µM CHIP for 20 min at 37°C prior to co-sedimentation.
# [5] = biological target: C-terminal Hsp70-interacting protein (CHIP), human recombinant full length, wild type, tag-free (human) (UniProt Q9UNE7)
# [6] = Liposome pelleting assay, binding of CHIP and truncated variants to liposomes; settings: N = 3
# From the text: For mammalian expression of EGFP, the expression vector pEGFP-N1 from Clontech (Mountain View, CA) was used. N-terminal EGFP-CHIP fusion protein was constructed by cloning human CHIP coding sequence in pEGFP-C2 vector (Clontech) using HindIII and BamHI restriction sites. A fusion between the N-terminalβ−1,4-galactosyltransferase1 and EGFP was used as a marker of the Golgi apparatus, farnesylated EGFP as a marker of plasma membrane (both constructs from Clontech). Untagged and 3xFLAG-tagged human CHIP for mammalian expression were constructed in pCMV-10 vector (Sigma-Aldrich). HSP70 was amplified from human cDNA and cloned into pcDNA3. 1 expression vector without a tag. HSP70 lacking the last amino acid (HSP70ΔD) was prepared by site-directed mutagenesis. Vectors of full-length CHIP, UbcH5a and mutant NQO1 for bacterial expression were prepared as described ([Martínez-Limón et al., 2016]). The TPR domain bacterial expression vector (TPR) was created by exchanging glutamate152 codon to a stop codon in the full-length CHIP vector. CHIP without TPR domain (ΔTPR) was cloned by deleting the sequence between serine25 and argininge130 by means of PCR. […]
# Liposomes were prepared by mixing 1,2-dioleoyl-sn-glycero-3-phosphocholine (DOPC) with indicated amount (wt/wt) of either 1,2-dipalmitoyl-sn-glycero-3-phosphate (phosphatidic acid) or (wt/wt) 1,2-dipalmitoyl-sn-glycero-3-phosphoinositol-4-phosphate (PI4P) in a 1.5 ml reaction tube (Eppendorf). […] The liposome suspension was subjected to five freeze-thaw cycles in liquid nitrogen to promote unilamellar vesicle formation, aliquoted in 200 µl and pulse-sonicated for 8 s at 45% output with MS72 sonotrode (Bandelin) to create a population of homogenously sized liposomes as determined using NanoSight (Malvern Instruments). […]
# 2 mM liposomes were mixed with 2 µM recombinant protein in 50 µl reconstitution buffer. […] The pellet was resuspended in 10 µl reconstitution buffer, resolved by SDS-PAGE and analyzed by CBB staining. Images were acquired with ChemiDoc MP imaging system and quantified using Image Lab 5.0 software (both from Bio-Rad Laboratories). […]
# [7] = biological target: T1, C-terminal Hsp70-interacting protein …; test: ITC; 10 µM protein in the cell, 200 µM GPTIEEVD peptide in the syringe, 25 injections of 8 µl every 3 min, 37°C, HSP70 buffer (25 mM HEPES KOH pH 7.5, 150 mM KCl, 5 mM MgCl2, 5% glycerol, 1 mM DTT); independent binding model; settings: both partners purified
molecule,measurement,setting,value
"C=CCNC1=C2C[C@@H](C)C[C@H](OC)[C@H](O)[C@@H](C)/C=C(\C)[C@H](OC(N)=O)[C@@H](OC)/C=C\C=C(/C)C(=O)NC(=CC1=O)C2=O [17-AAG, 17-(Allylamino)−17-demethoxygeldanamycin]",EGFP-CHIP relocalization to the plasma membrane,[1],"mimic the heat shock effect in regard to CHIP relocalization to membranes in murine fibroblasts; also recorded: leads to the appearance of EGFP-CHIP, but not of EGFP, at the plasma membrane"
O=C(NCCN1CCC(n2c(=O)[nH]c3ccccc32)CC1)c1cc2cc(F)ccc2[nH]1 [FIPI],release of EGFP-CHIP-K30A from membranes into the cytosol,[2],efficiently released chaperone-free CHIP into the cytosol
"CCCCCCCCCCCCCCCC(=O)OC[C@H](COP(=O)(O)O[C@H]1[C@H](O)[C@@H](O)[C@H](OP(=O)(O)O)[C@@H](O)[C@H]1O)OC(=O)CCCCCCCCCCCCCCC [PI4P, 1,2-dipalmitoyl-sn-glycero-3-phosphoinositol-4-phosphate]",CHIP binding to phospholipid on lipid array,[3],especially PI4P
same,"CHIP association with DOPC-liposomes (pelleting), 1% PI4P","[4]; 1% PI4P, 2 mM liposomes, 2 µM CHIP, 30 min at 37°C, N = 3",weakly
same,"CHIP association with DOPC-liposomes (pelleting), 5% PI4P","[4]; 5% PI4P, 2 mM liposomes, 2 µM CHIP, 30 min at 37°C, ***p<0.001, N = 3",strongly enhanced association of liposomes with CHIP; also recorded: strongly enhance CHIP association with DOPC-liposomes
N#Cc1ccc(COC[C@H]2O[C@@H](n3c(NCc4ccc(Cl)c(Cl)c4)nc4c(N)ncnc43)[C@H](O)[C@@H]2O)cc1 [VER-155008],EGFP-CHIP relocalization to the plasma membrane,[1],"mimic the heat shock effect in regard to CHIP relocalization to membranes in murine fibroblasts; also recorded: leads to the appearance of EGFP-CHIP, but not of EGFP, at the plasma membrane"
C[C@@H](CN1CCC(n2c(=O)[nH]c3cc(Cl)ccc32)CC1)NC(=O)c1ccc2ccccc2c1 [VU0155069],release of EGFP-CHIP-K30A from membranes into the cytosol,[2],efficiently released chaperone-free CHIP into the cytosol
O[As](O)O [arsenite],CHIP relocalization to membranes,[1],does not induce CHIP relocalization to membranes in murine fibroblasts; also recorded: not induced by arsenite treatment
"C-terminal domain of HSP70, 260 amino acids (HSP70-C) (from UniProt P0DMV8 382-641) (domain or fragment)","association of 2 µM CHIP with liposomes in the pelleting assay after preincubation with HSP70-C (1 µM, substoichiometric, to an equimolar amount), relative to the control without HSP70-C (% of the control)",[5],30
"HSP70-C: last 260 amino acids of human HSPA1A, C-terminal domain of HSP70",CHIP binding to lipid arrays in the presence of HSP70-C,"[3]; ten-fold molar excess HSP70-C, 0.5 µg/ml CHIP, RT",blocks interaction of CHIP with phospholipids; also recorded: complete loss of binding to phosphatidylinositol monophosphates and only residual interaction with phosphatidic acid
same,inhibition of CHIP interaction with liposomes,"[4]; 1 μM HSP70-C (substoichiometric), preincubated with 2 µM CHIP 20 min at 37°C, N = 4",efficiently prevented CHIP from interacting with liposomes
same,"CHIP association with liposomes, % of control","[4]; equimolar HSP70-C, preincubated with 2 µM CHIP 20 min at 37°C, N = 4",ca. 30%
"phosphatidylinositol-3,4,5-trisphosphate",CHIP binding to phospholipid on lipid array,[3],"no binding to phosphatidylinositol-3,4,5-trisphosphate detected"
B1,binding capacity versus full-length CHIP,[6]; 5% PA-containing DOPC-liposomes,still surpassed the full-length CHIP in binding capacity
same,binding efficiency relative to full-length protein,"[6]; isolated TPR domain, 20% PA-containing liposomes, 2 µM protein",ca. 160%
B2,Kd,[7],5 µM
